Patent publication US7034208B1, “Ahas inhibiting herbicide resistant wheat and method for selection thereof” (BASF Aktiengellschaft, priority 1991, dated 2006)
Where two headings read alike, the source gives them in different places.

Experiments:
[1] = tested on: wheat selection FS4 and Fidel; test: Field Trial II; type: in vivo; conditions: for effect on final plant height: resistant selection FS4, postemergent, six weeks after treatment
[2] = tested on: wheat seed of the susceptible cultivar Fidel; test: Pre-emergence herbicide application, rate finding; type: in vivo; conditions: visual toxicity after three to four weeks
Procedure: A series of experiments is performed to determine the appropriate herbicide rate for this pre-emergent spray treatment. Wheat seed of the susceptible cultivar Fidel is planted in Metro Mix 350™ in 6×8 inch peat flats at a rate of 100 seeds per flat. The flats are watered prior to herbicide treatment. Three flats are sprayed per treatment. The herbicides are applied with a laboratory belt sprayer at a rate of 950 liters per hectare (L/ha) at a belt speed of 12.8 sec/rev using sprayer nozzle #40015E (Teejet™ Spraying Systems). After three to four weeks, the treatments are evaluated by visual observation for toxicity to the wheat seeds/seedlings.

[3] = tested on: wheat variety Fidel and resistant selections FS2 and FS4; test: Preemergence Herbicide Tolerance; type: in vivo; conditions: pre-emergence application; plant growth after four weeks; versus Fidel
wheat seeds = test: Seed soak screen (Example 1, Step 1, Experiments 1-4); type: in vivo; conditions: for herbicide concentration necessary for lethality: seed soak; for seedling appearance versus controls: by three to four weeks
Procedure: The seeds are rinsed in sterile distilled water and then soaked in a herbicide concentration for a set period of time, as described below. Sets of twenty-five seeds are placed into 25 ml of the herbicide solution described below in a sterile 100×15 mm plastic petri dish and soaked for the designated time. The seeds are rinsed with water, dried with paper towels and planted (25 seeds/flat) approximately ½″ deep in 6×8 inch peat flats containing a moist, sterile, artificial soil, Metro Mix 350™ (Grace Company, Cambridge, Mass.). The treatments are evaluated at four weeks after treatment. The herbicides, rates and time periods evaluated are described below:
Each treatment is replicated four times.
Each treatment is replicated two times.
The protocol is as described above except that 35 seeds are soaked per petri dish; 25 seeds are still planted per flat. This experiment is repeated twice.

[4] = tested on: mutant wheat selections FS1-FS4 and Fidel; type: in vivo
From the text: This greenhouse test examines the level and spectrum of herbicide resistance of the mutant selections at the whole plant level. […] These lines are bulked according to their parental lines: FS1, FS2, FS3 and FS4. Fidel (wild-type) is used is a control and for performance comparison purposes. Five seeds from each of these lines (including Fidel) are planted per pot in six inch Azalea pots and are later thinned to three plants per pot. Three replicates are used per treatment (chemical and rate) for each line, and six replicates per wheat line are used as untreated controls. Plants are sprayed postemergence, 10 days after planting, with the following herbicides and rates: […]

[5] = tested on: wheat selections FS2 and FS4 and Fidel; test: Postemergence Herbicide Tolerance, upper limits; type: in vivo; conditions: four weeks after treatment
From the text: In this second greenhouse test, the upper limits of the mutant selections' resistance to postemergent applications of PURSUIT™ and Compound 2 are examined. M4 seed of two of the mutant selections, FS2 and FS4, and seed of Fidel are used in this experiment. Five seeds from each line are planted per pot in sterile Metro Mix 350™ in six inch Azalea pots. Immediately prior to herbicide treatment, these plants are thinned to three plants per pot. Three replicates are used per treatment (chemical & rate) for each line, and six replicates per wheat line are used as untreated controls. The plants are sprayed postemergence, 10 days after planting, with the following herbicides and rates (g/ha):
The herbicides are applied as previously described. Plant height is measured immediately prior to spraying. Plant heights are also measured at two and four weeks after treatment, and shoot fresh weights measured at seven weeks after treatment.

[6] = tested on: mutant wheat selection FS2 and Fidel; test: M3-M4 Wheat Herbicide Resistance Spectrum; type: in vivo; conditions: FS2 versus Fidel; postemergence
From the text: In this experiment, the tolerance of imidazolinone-resistant wheat to three sulfonylurea herbicides (BEACON™, CLASSIC™ and OUST™ (BEACON™ is a registered trademark of Ciba-Geigy and is 2-[4,6-bis-(difluoro-methoxy)-pyrimidin-2-ylcarbamoylsulfamoyl]benzoic acid; CLASSIC™ is a registered trademark of E.I. du Pont de Nemours and Company and is the ethyl ester of o-[[(4-chloro-6-methoxy-2-pyrimidinyl)-carbamoyl]-sulfamoyl]-benzoic acid), a sulfamoylurea herbicide (Compound 3), a sulfonylcarboxamide (Compound 1), and an imidazolinone herbicide (Compound 7, which is 3-(4-isopropyl-4-methyl-5-oxo-2-imidazolin-2-yl)-2-methyl-crotonic acid), is examined to look for cross-tolerance to AHAS-inhibiting herbicides other than the imidazolinones. […] Each treatment consists of three replicates. In addition, there are six replicates each of FS2 and Fidel which are used as untreated controls. Plants are sprayed postemergence, 7 days after planting, with the following herbicides and rates:
The herbicides are applied as previously described. Plants are rated at two, three and four weeks after treatment with herbicide.

[7] = tested on: AHAS (acetohydroxyacid synthase); test: AHAS Enzyme Assay I and II (M4 Plants); type: biochemical, wheat; conditions: mutant selections; level lower than that for PURSUIT
Procedure: Enzyme Extraction: For the extraction of AHAS, 10 grams of tissue are powdered in liquid nitrogen and then homogenized in 100 mM potassium phosphate buffer (pH 7.5) containing 10 mM pyruvate, 5 mM MgCl2, 5 uM EDTA, 100 uM FAD, 1 mM valine, 1 mM leucine, 10% glycerol, and 10 mM cysteine. The homogenate is filtered through a nylon cloth (53 uM mesh) and centrifuged at 25,000 g for 20 minutes. The supernatant fraction is brought to 50% saturation with respect to (NH4)2SO4 and allowed to stand for 20-30 minutes on ice. It is then centrifuged at 25,000 g for 20 minutes and the supernatant is discarded. The ammonium sulfate pellet is dissolved in 50 mM potassium phosphate buffer (pH 7.5) containing 1 mM EDTA and 100 mM NaCl and used for the assay procedures.
AHAS Assay: AHAS activity is measured by estimation of the product, acetolactate, after conversion by decarboxylation in the presence of acid to acetoin. Standard reaction mixtures contain the enzyme in 50 mM potassium phosphate buffer (pH 7.0) containing 100 mM sodium pyruvate, 10 mM MgCl2, 1 mM thiamine pyrophosphate, and 10 uM FAD. This mixture is incubated at 37° C. for one hour after which time the reaction is stopped with the addition of […] to make a final concentration of 0.85% […] in the tube. The reaction product is allowed to decarboxylate at 60° C. for 15 minutes. The acetoin formed is determined by incubating with creatine (0.17%) and 1-napthol (1.7% in 4N NaOH) by the method of Westerfield (Westerfield, W. W., J. Biol. Chem., 161, 495-502 (1945)). Maximum color is observed by incubation at 60° C. for 15 minutes and then further incubation at room temperature for 15 minutes. The absorption of color complex is measured at 520 nm. Appropriate checks of direct acetoin formation during the enzyme assay are made. Each assay is run at least in duplicate and the experiments are repeated a minimum of two times.
Herbicide Application: Two flats are planted with approximately 100 seeds of each wheat selection (FS1, FS2, and FS4) and Fidel in sterile Metro Mix 350. Ten days later, each flat is sprayed postemergence with 62.5 g/ha of PURSUIT™. The spray delivery rate is 400 L/ha with a belt speed of 8.2 sec/rev using nozzle #65015E. Tween 20™ is used as a surfactant at 0.25% v/v. The plants are harvested three days later and assayed for AHAS activity.
Enzyme Extraction and AHAS Assay: As previously described.
Herbicide Application: As described above (Enzyme Assay I) except that the spray delivery rate is 950 l/ha with a belt speed of 12.8 sec/rev using nozzle #40015E.

[8] = tested on: mutant wheat selection FS2 and Fidel; conditions: FS2 versus Fidel; postemergence
From the text: In a second experiment, the mutant wheat selection, FS2, from bulked M3-M4 seed, and Fidel seed are planted in 6″ Azalea pots in sterile Metro Mix 350™. Three seeds are planted per pot initially; these are subsequently thinned to two plants. There are three replicates of each treatment. In addition, the untreated controls consist of 15 replicates each of Fidel and FS2. Plants are sprayed postemergence, 12 days after planting, with the following herbicides and rates: […]

[9] = mutant wheat FS1-FS4, postemergence, plant growth four weeks after treatment

COc1cc(OC)nc(NC(=O)NS(=O)(=O)c2ncccc2C(=O)N(C)C)n1 [ACCENT, 1-(4,6-dimethoxypyrimidin-2-yl)-3-(3-dimethylcarbamoyl-2-pyridylsulfonyl)urea]
cross resistance ([1]; FS4, after three weeks): no cross resistance
tolerance of the resistant wheat ([1]; FS4, postemergent 20 and 40 g/ha): little or no tolerance
grain yield ([1]; both the resistant and susceptible Fidel, yields 10 weeks after treatment): little or no grain yield

CC(C)C1(C)N=C(c2ncccc2C(=O)O)NC1=O (centres unmarked) [ARSENAL, 2-(4-isopropyl-4-methyl-5-oxo-2-imidazolin-2-yl)-nicotinic acid]
most effective rate, pre-emergent spray [2]: 40-50 g/ha
increased tolerance of FS2 and FS4 [3]: approximately 8 fold
effect on seed germination and seedling growth (wheat seeds; seed soak 1-500 uM for 48 hours, Experiment 1): inhibits seed germination and seedling growth with increasing concentration
seedling growth (wheat seeds; seed soak 100 and 500 uM for 48 hours): totally inhibit seedling growth
herbicide concentration necessary for lethality (wheat seeds; exposure greater than 72 hours): 50 µM
herbicide concentration necessary for lethality (wheat seeds; length of exposure less than 72 hours): 75 µM
rate to which the mutant wheat is resistant [4, 9]: more than 48 g/ha

Cc1cnc(C2=NC(C)(C(C)C)C(=O)N2)c(C(=O)O)c1 (centres unmarked) [CADRE, 2-(4-isopropyl-4-methyl-5-oxo-2-imidazolin-2-yl)-5-methylnicotinic acid]
effect on final plant height [1]: no effect

CC(=O)NC(C)(C(=O)NS(=O)(=O)c1ccc(Cl)cc1)C(C)C (centres unmarked) [Compound 1, 2-acetamido-N-[(p-chlorophenyl)sulfonyl]-2,3-dimethyl-butyramide]
inhibitory effect on seed germination or seedling growth (wheat seeds; seed soak 500-2000 uM for 48, 72 or 96 hours): does not have an inhibitory effect on either seed germination or seedling growth

COCc1cnc(C2=NC(C)(C(C)C)C(=O)N2)c(C(=O)O)c1 (centres unmarked) [Compound 2, 2-(4-isopropyl-4-methyl-5-oxo-2-imidazolin-2-yl)-5-(methoxymethyl)-nicotinic acid]
rates up to which FS2 and FS4 plant heights equal the untreated controls [5]: 25-50 g/ha
rate to which the mutant wheat is resistant [4, 9]: more than 80 g/ha
increased tolerance of mutant wheat ([4]; mutant wheat FS1-FS4 versus Fidel, postemergence, four weeks after treatment): ~16 fold
effect on final plant height [1]: no effect

C/C(C(=O)O)=C(\C)C1=NC(C)(C(C)C)C(=O)N1 (centres unmarked) [Compound 7, 3-(4-isopropyl-4-methyl-5-oxo-2-imidazolin-2-yl)-2-methyl-crotonic acid]
resistance [6]: greater than 10 fold

COC(OC)c1cnc(C2=NC(C)(C(C)C)C(=O)N2)c(C(=O)O)c1 (centres unmarked) [Compound 8, 5-formyl-2-(4-isopropyl-4-methyl-5-oxo-2-imidazolin-2-yl)-nicotinic acid, 5-(dimethylacetal)]
effect on final plant height [1]: no effect

COC(=O)c1ccccc1S(=O)(=O)NC(=O)Nc1nc(C)cc(C)n1 [OUST, methyl ester of o-[[3-(4,6-dimethylpyrimidin-2-yl)ureido]sulfonyl]-benzoic acid]
resistance of AHAS activity to inhibition [7]: Some resistance
increased tolerance of mutant wheat ([4]; in vivo): ~2 fold
rate to which the mutant wheat is resistant ([4]; in vivo): more than 5 g/ha
increased tolerance of the resistant wheat [8]: 2-4 fold

CC(C)C1(C)N=C(c2nc3ccccc3cc2C(=O)O)NC1=O (centres unmarked) [SCEPTER, 2-(4-isopropyl-4-methyl-5-oxo-2-imidazolin-2-yl)-3-quinolinecarboxylic acid]
resistance of AHAS activity to inhibition [7]: Some resistance
seedling appearance versus controls (wheat seeds; seed soak 500 uM for 48 hours): slightly shorter than controls
seedling appearance versus controls (wheat seeds; seed soak 1-100 uM for 48 hours): indistinguishable from controls
prevention of escapes (false positives) (wheat seeds; seed soak maximum 1000 uM for 48 hours, Experiment 2): still not high enough to prevent “escapes”
